We go through 16 compounds from article PMC5130005, “Indolin-2-one compounds targeting thioredoxin reductase as potential anticancer drug leads” (Oncotarget, 2016).

The structures appear in SMILES notation.

Data set [1] has as its system HCT 116 cells. Nature of the data set: MTT cell viability assay, HCT 116 cells. The conditions noted are these: Homo sapiens, 72 h, mean ± SD of 3 experiments; for GI50: read-out: GI50 (50% growth inhibition concentration), HCT 116 cells. The class given is cell-based. The procedure:
(§1) HCT 116 and MCF-7 cells were seeded in 96-well plates at a density of 1 × 10^4 cells/well and allowed to grow for 20-24 h before addition of test compounds. DMSO stocks of indolin-2-one compounds were serially diluted in medium each time an assay was performed. Cell viability was determined at the time of compound addition (time 0) and after 72 h of compound treatment by reduction of 3-(4,5-dimethylthiazol-2-yl)-2,5-diphenyltetrazolium bromide (MTT) by dehydrogenases in viable cells. MTT was added into each well (final concentration 400 μg/ml) and the plates were incubated for 4 h at 37°C. The supernatants were aspirated and upon solubilization of the formed formazan crystals in DMSO:glycine buffer pH 10.5 (ratio 4:1), absorbance at 550 nm was measured. 50% growth inhibition concentrations (GI50) and 50% lethal concentrations (LC50) values were calculated.

Data set [2] deals with MCF-7 cells. The data set can be described thus: MTT cell viability assay, MCF-7 cells. The class given is cell-based. As to conditions: Homo sapiens, MCF7, 72 h, mean ± SD of 3 experiments; for GI50: read-out: GI50 (50% growth inhibition concentration), MCF-7 cells; for CC50: read-out: LC50 (50% lethal concentration), MCF-7 cells. The procedure:
as §1

Data set [3] concerns the target T1, recombinant rat TrxR (Rattus norvegicus, UniProt O89049).
T1 construct: made in house
T1 sequence (O89049 1-499): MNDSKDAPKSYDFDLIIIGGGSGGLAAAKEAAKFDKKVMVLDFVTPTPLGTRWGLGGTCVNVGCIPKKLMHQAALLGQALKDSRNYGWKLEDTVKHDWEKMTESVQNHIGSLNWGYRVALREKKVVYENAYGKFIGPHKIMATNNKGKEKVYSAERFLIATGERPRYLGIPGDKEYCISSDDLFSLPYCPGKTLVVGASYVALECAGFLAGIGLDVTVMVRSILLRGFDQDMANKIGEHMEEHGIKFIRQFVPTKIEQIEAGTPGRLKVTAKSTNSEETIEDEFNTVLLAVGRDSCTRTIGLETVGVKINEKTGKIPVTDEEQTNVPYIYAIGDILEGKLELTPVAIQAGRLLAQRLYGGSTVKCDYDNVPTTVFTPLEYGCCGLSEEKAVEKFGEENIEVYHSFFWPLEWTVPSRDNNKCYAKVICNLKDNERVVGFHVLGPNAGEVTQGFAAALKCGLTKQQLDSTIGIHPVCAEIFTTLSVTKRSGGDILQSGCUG
The data set can be described thus: in vitro TrxR DTNB reduction assay. Type of data set: biochemical. As to conditions: 30 min incubation, 100 nM recombinant rat TrxR, 200 μM NADPH, read-out: TrxR inhibition IC50. The procedure:
In a volume of 100 μl of 50 mM Tris-HCl pH 7.5, 2 mM EDTA buffer (TE buffer), compounds of concentrations 1-100 μM were incubated with 100 nM recombinant rat TrxR and 200 μM NADPH at room temperature in 96-well plates for 30 and 60 min. The incubation was terminated by addition of 100 μl per well of 10 mM DTNB, 200 μM NADPH solution in TE buffer and immediately followed by measurement of linear increase of absorbance at 412 nm for the initial 2 min using the VersaMax microplate reader (Molecular Devices). The results were expressed as % of TrxR activity of drug-treated sample over that of DMSO control. The 50% inhibition concentration (IC50) values were calculated.

For data set [4], the target named is T1, recombinant rat TrxR. The data set can be described thus: NADPH oxidase activity of recombinant rat TrxR (substrate test). Type of data set: biochemical. The conditions noted are these: 8 μM juglone, 15 nM TrxR, 250 μM NADPH, 20 min. The protocol: In a volume of 198 μl of 15 nM recombinant rat TrxR and 250 μM NADPH in TE buffer, 2 μl of diluted DMSO stocks of juglone and compounds 4 and 5 was added to final concentrations of 8 μM (for julgone) and 100 μM (for compounds 4 and 5). The consumption of NADPH was immediately monitored at 340 nm for 20 min using the VersaMax microplate reader. The linear decrease in NADPH absorbance was used for calculating NADPH consumption and expressed as % of activity of drug-treated sample over that of DMSO-treated sample.

For `CCN1C(=O)/C(=C/C(C)=O)c2ccccc21` [Compound 2], in data set [1], the LC50 (50% lethal concentration) was determined as 9.7 ± 0.1 µM and the GI50 worked out at 4.2 ± 0.5 µM. Besides, in data set [2], the GI50 stood at 7.9 ± 1.7 µM and the CC50 is 25 ± 1.6 µM. The IC50 in data set [3] amounted to 10.2 ± 1.8 µM.

For the compound `CC(=O)/C=C1/C(=O)N(C(C)C)c2ccccc21` [Compound 3], in data set [1], the LC50 (50% lethal concentration) is 9.8 ± 0.1 µM and the GI50 was determined as 5.3 ± 0.1 µM. In addition, in data set [2], the GI50 was found to be 7.1 ± 0.6 µM and the CC50 was found to be 22.4 ± 0.6 µM. The IC50 in data set [3] came out at 15 ± 1.4 µM.

As for `Cc1ccccc1C(=O)/C=C1/C(=O)N(C)c2ccccc21` [Compound 7], in data set [1], the LC50 (50% lethal concentration) came out at 27.8 ± 0.8 µM and the GI50 was 12.4 ± 2.1 µM. In data set [2], the GI50 worked out at 17.3 ± 4.6 µM and the CC50 is 27.9 ± 1.5 µM. For the same compound, in data set [3], the IC50 worked out at 19 ± 2.4 µM.

Consider `Cc1cccc(C(=O)/C=C2/C(=O)N(C)c3ccccc32)c1` [Compound 8], for which, in data set [1], the LC50 (50% lethal concentration) worked out at 28 ± 1 µM and the GI50 was found to be 10.4 ± 2.6 µM. Further, in data set [2], the GI50 was found to be 14 ± 0.6 µM and the CC50 stood at 27.9 ± 0.6 µM. Besides, the IC50 in data set [3] worked out at 22.5 ± 0.4 µM.

Take `Cc1ccc(C(=O)/C=C2/C(=O)N(C)c3ccccc32)cc1` [Compound 9]: in data set [1], the LC50 (50% lethal concentration) was determined as 28.6 ± 0.8 µM and the GI50 is 10.5 ± 1.2 µM. In addition, in data set [2], the GI50 turned out to be 10.5 ± 0.8 µM and the CC50 stood at 28.4 ± 0.8 µM. In addition, the IC50 in data set [3] was found to be 21.6 ± 4.4 µM.

For the compound `CCc1ccc(C(=O)/C=C2/C(=O)N(C)c3ccccc32)cc1` [Compound 10], in data set [1], the LC50 (50% lethal concentration) was found to be 28.8 ± 1.1 µM and the GI50 turned out to be 11.9 ± 1.1 µM. Further, in data set [2], the GI50 came out at 10.4 ± 0.6 µM and the CC50 worked out at 30.4 ± 6.2 µM. Further, the half-inhibitory concentration (IC50) in data set [3] amounted to 19.1 ± 0.4 µM.

On to `CC(C)c1ccc(C(=O)/C=C2/C(=O)N(C)c3ccccc32)cc1` [Compound 11], for which, in data set [1], the LC50 (50% lethal concentration) came to 26.7 ± 1.7 µM and the GI50 was 14.4 ± 1.8 µM. In addition, in data set [2], the GI50 was 10.5 ± 1.7 µM and the CC50 stood at 27 ± 0.4 µM. The half-inhibitory concentration (IC50) in data set [3] is 25.2 ± 5.4 µM.

Consider `CCCCc1ccc(C(=O)/C=C2/C(=O)N(C)c3ccccc32)cc1` [Compound 12], for which, in data set [1], the LC50 (50% lethal concentration) came to 26.7 ± 0.8 µM and the GI50 was 13.5 ± 2.6 µM. In addition, in data set [2], the GI50 turned out to be 16.5 ± 4 µM and the CC50 was 81.2 ± 9.7 µM. Also, the concentration for half-maximal inhibition (IC50) in data set [3] was greater than 100 µM.

For `CN1C(=O)/C(=C/C(=O)c2ccc(F)cc2)c2ccccc21` [Compound 13], in data set [1], the LC50 (50% lethal concentration) was determined as 29 ± 1.4 µM and the GI50 is 11.9 ± 0.5 µM. In addition, in data set [2], the GI50 is 12.5 ± 2.4 µM and the CC50 is 28.6 ± 1.2 µM. In addition, the concentration for half-maximal inhibition (IC50) in data set [3] was determined as 18.7 ± 3.56 µM.

For `CN1C(=O)/C(=C/C(=O)c2cccc(Cl)c2)c2ccccc21` [Compound 14], in data set [1], the LC50 (50% lethal concentration) came to 26.9 ± 1.5 µM and the GI50 turned out to be 15.6 ± 1.1 µM. In data set [2], the GI50 worked out at 23 ± 4.5 µM and the CC50 stood at 84.3 ± 5.8 µM. Further, the IC50 in data set [3] came out at 18.4 ± 2.2 µM.

As to `CN1C(=O)/C(=C/C(=O)c2ccc(Cl)cc2)c2ccccc21` [Compound 15], in data set [1], the LC50 (50% lethal concentration) amounted to 28.6 ± 1.4 µM and the GI50 amounted to 12.4 ± 2.8 µM. For the same compound, in data set [2], the GI50 was 20.9 ± 3 µM and the CC50 came out at 92 ± 1.2 µM. Also, in data set [3], the 50% inhibitory concentration (IC50) was determined as 16.9 ± 3.4 µM.

As to `CN1C(=O)/C(=C/C(=O)c2ccccc2C(F)(F)F)c2ccccc21` [Compound 16], in data set [1], the LC50 (50% lethal concentration) was 27.7 ± 3.1 µM and the GI50 was 19.5 ± 1.3 µM. For the same compound, in data set [2], the GI50 was 15.8 ± 1 µM and the CC50 was 27.7 ± 1.9 µM. Further, in data set [3], the IC50 was determined as 28.9 ± 0.2 µM.

Turning to `CN1C(=O)/C(=C/C(=O)c2cccc(C(F)(F)F)c2)c2ccccc21` [Compound 17], in data set [1], the LC50 (50% lethal concentration) is 26.2 ± 2.1 µM and the GI50 was 16.1 ± 2.2 µM. In data set [2], the GI50 was 17.9 ± 0.4 µM and the CC50 was determined as 89.6 ± 3.6 µM. The 50% inhibitory concentration (IC50) in data set [3] was found to be 34.2 ± 18.2 µM.

For the compound `CN1C(=O)/C(=C/C(=O)c2ccc(C(F)(F)F)cc2)c2ccccc21` [Compound 18], in data set [1], the LC50 (50% lethal concentration) came to 90.5 ± 7.3 µM and the GI50 is 15.7 ± 1.7 µM. Also, in data set [2], the GI50 stood at 44.4 ± 0.1 µM and the CC50 is 89.8 ± 5.1 µM. Further, the IC50 in data set [3] was greater than 100 µM.

As for `CN1C(=O)/C(=C\C(=O)c2ccc(Cl)cc2)c2ccccc21` [Compound 20], in data set [1], the LC50 (50% lethal concentration) turned out to be 28.7 ± 2.4 µM and the GI50 was found to be 16.1 ± 2.4 µM. In data set [2], the GI50 is 20.4 ± 3.5 µM and the CC50 amounted to 91.7 ± 2 µM. The concentration for half-maximal inhibition (IC50) in data set [3] was determined as 15.9 ± 2.9 µM.

As to `O=C1C=CC(=O)c2c(O)cccc21` [juglone], in data set [4], the “rate of NADPH consumption of recombinant TrxR” value was “markedly increased”.
